Laboratory results reported in patent US20040047885A1, “Use of compounds which make it possible to modify the physicochemical properties of the skin and/or the mucous membranes as agents preventing or reducing the adhesion of microorganisms to the latter” (priority 2000, published 2004).
Where two headings read alike, the source gives them in different places.

Tested on: Staphylococcus aureus
Assay type: cell-based
Details: vs water
Description: These compounds are chosen so that the decimal logarithm of the mean number of viable bacteria adhering to reconstructed epidermis, after a test consisting in bringing the said epidermis into contact with the test compound for 2 hours at 37° C., is at least 0.3 less than that obtained by a test carried out with water under the same conditions.
The reconstructed epidermis used in the test indicated above is reconstructed human epidermis, equivalent to human skin, sold by EPISKIN.
The antiadhesion test corresponds to the protocol below:
Before bacterial adhesion, the reconstructed epidermis is brought into contact for 2 hours with 25 mg of the product to be tested at 37° C. 1 ml of bacterial suspension of Staphylococcus aureus at a concentration of […] in Tryptone salt is then added thereto. After incubating for 24 hours at 37° C., the bacterial suspension is emptied and five rinsings are carried out with 1 ml of sterile distilled water. The epidermis, detached from its support, is then ground with the aid of a food processor in 18 ml of Tryptone salt. A decimal dilution is carried out on this suspension in Tryptone salt, and 1 ml of the dilution is then inoculated into 15 ml of Trypticase Soy agar and the medium is incubated for 24 hours at 37° C. The adherent and viable cells are then counted.
This antiadhesion test makes it possible to evaluate the efficacy of molecules alone or of finished products.
The figures presented opposite the compound correspond to the reduction of the decimal logarithm of the mean number of viable Staphylococcus aureus adhering to reconstructed epidermis after treatment with the compound under the conditions defined by the preceding test compared with the decimal logarithm of the mean number of viable Staphylococcus aureus adhering to reconstructed epidermis after treatment with water under the same conditions.

[1] = reconstructed human epidermis (EPISKIN) contacted 2 hours at 37° C. with 25 mg product, then 24 hours with bacterial suspension

| Molecule | reduction of the decimal logarithm of the mean number of viable Staphylococcus aureus adhering to reconstructed epidermis compared with water [1] | reduction of the decimal logarithm of the mean number of viable Staphylococcus aureus adhering to reconstructed epidermis compared with water (tested at 5% active substance, epidermis contacted 2 hours at 37° C.) |
| --- | --- | --- |
| CCCCCCCCOC(=O)CCCCC(=O)OCCCCCCCC [Dioctyl adipate] | 0.90 | – |
| Tartrate of branched C12-C13 dialcohols | 2.31 | – |
| Disodium cocoamphodiacetate | 1.34 | – |
| Ricinoleic monoethanolamide monosulphosuccinate salt | – | 3.84 |
